In US20230096203A1, “METHODS FOR DETECTING FOOD ALLERGIES” (THE REGENTS OF THE UNIVERSITY OF MICHIGAN, priority 2020, published 2023):

System: CFTR-dependent Cl— transport
Assay: Ussing chamber: forskolin-induced short-circuit current of jejunum segments pre-incubated ex vivo with ion channel blockers
Set-up: species or system BALB/c wild-type (WT) mice
Conditions: jejunum of OVA-treated mice; DIDS (100 μM) or CFTRInh172 (20 μM) in mucosal reservoir
Procedure: Oral Antigen-Induced Intestinal Anaphylaxis. 4-8-week-old mice were sensitized to ovalbumin (OVA) ([…] of OVA/1 mg of alum in sterile saline by intraperitoneal (i.p.) injection) and received repeated oral gavage (o.g.) challenge with OVA (250 μl of OVA (50 mg) in saline or 250 μl of saline (vehicle)) as previously described (Ahrens et al., American Journal of Pathology 180, 1535-1546, doi:10.101/j.ajpath.2011.12.036 (2012)). Prior to each o.g. challenge, mice were deprived of food for 4-5 hours. Rectal temperatures were measured prior to challenge and then every 15 minutes for 60 minutes. […] Evidence of secretory diarrhea was assessed by determination of short-circuit current (Isc) of small intestine (Si) segments ex vivo in a Ussing chamber system up to 60 minutes following o.g. challenge. […]
Ussing chambers. […] The transepithelial potential difference (PD) was detected with two paired electrodes that contained 4% agar in 3 M KCl. […] To establish equilibrium, PD was continuously monitored under open-circuit conditions for 15 min. […] For ion conductance experiments, changes in Isc were determined for the cumulative addition of forskolin and acetylcholine to the serosal reservoir. After the peak response to the final concentration of each agonist was recorded, the Krebs buffer on each side of the chamber was replaced, and the tissue was allowed to equilibrate for 30 minutes. […]

SMILES	Forskolin-induced ΔIsc
O=S(=O)(O)c1cc(N=C=S)ccc1C=Cc1ccc(N=C=S)cc1S(=O)(=O)O [DIDS, 4,4′-Diisothiocyanatostilbene-2,2′-disulfonate]	not
O=C(O)c1ccc(/C=C2\SC(=S)N(c3cccc(C(F)(F)F)c3)C2=O)cc1 [CFTR^inh172]	abrogated
